According to the supplement of paper PMC10307832:

How the values were obtained:
Test in all cases: relative viability (nuclei count vs DMSO), 5 days (fraction); higher = more cells survive
ABC-1 = tested on: ABC-1
Method in brief: (§1)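 After 5 days of treatment, lung cancer cells in 1536-well plates were fixed and stained in a single step (final 0.05% Triton X-100, 1% formaldehyde, 1 ug/ml Hoechst) and their nuclei counted on 4× images. Treatment had been applied by pin tool the day after seeding as one drug alone or as a fixed anchor-drug dose with five library-drug doses (not always all listed) in √10 steps. Relative viability is the nuclei count of treated wells divided by that of vehicle wells, and values are medians of duplicate plates.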

CAL-12T = tested on: CAL-12T
Method in brief: as §1

ChaGo-K-1 = tested on: ChaGo-K-1
Method in brief: as §1

HCC-366 = tested on: HCC-366
Method in brief: as §1

HCC-78 = tested on: HCC-78
Method in brief: as §1

LC-2-ad = tested on: LC-2-ad
Method in brief: as §1

LOU-NH91 = tested on: LOU-NH91
Method in brief: as §1

LU99A = tested on: LU99A
Method in brief: as §1

NCI-H1395 = tested on: NCI-H1395
Method in brief: as §1

NCI-H1651 = tested on: NCI-H1651
Method in brief: as §1

NCI-H1734 = tested on: NCI-H1734
Method in brief: as §1

NCI-H1755 = tested on: NCI-H1755
Method in brief: as §1

NCI-H1793 = tested on: NCI-H1793
Method in brief: as §1

NCI-H1944 = tested on: NCI-H1944
Method in brief: as §1

NCI-H2087 = tested on: NCI-H2087
Method in brief: as §1

NCI-H2170 = tested on: NCI-H2170
Method in brief: as §1

NCI-H2228 = tested on: NCI-H2228
Method in brief: as §1

NCI-H2405 = tested on: NCI-H2405
Method in brief: as §1

NCI-H3122 = tested on: NCI-H3122
Method in brief: as §1

NCI-H460 = tested on: NCI-H460
Method in brief: as §1

PC-3 [JPC-3] = tested on: PC-3 [JPC-3]
Method in brief: as §1

RERF-LC-KJ = tested on: RERF-LC-KJ
Method in brief: as §1

UMC-11 = tested on: UMC-11
Method in brief: as §1

O=C(O)c1ccc(-c2c[nH]c3ncc(-c4ccccc4)cc23)cc1C1CCCC1 + O=C(CCCCCCC(=O)Nc1ccccc1)NO [Vorinostat] (partner 1 µM)
relative viability (ABC-1; first compound 0.04 µM): 1.12 | relative viability (ABC-1; first compound 0.1265 µM): 1.36 | relative viability (ABC-1; first compound 0.4 µM): 1.31 | relative viability (ABC-1; first compound 1.265 µM): 0.985 | relative viability (CAL-12T; first compound 0.04 µM): 0.721 | relative viability (CAL-12T; first compound 0.1265 µM): 0.91 | relative viability (CAL-12T; first compound 0.4 µM): 0.73 | relative viability (CAL-12T; first compound 1.265 µM): 0.668 | relative viability (ChaGo-K-1; first compound 0.04 µM): 0.739 | relative viability (ChaGo-K-1; first compound 0.1265 µM): 0.786 | relative viability (ChaGo-K-1; first compound 0.4 µM): 0.772 | relative viability (ChaGo-K-1; first compound 1.265 µM): 0.686 | relative viability (HCC-366; first compound 0.04 µM): 0.368 | relative viability (HCC-366; first compound 0.1265 µM): 0.531 | relative viability (HCC-366; first compound 0.4 µM): 0.394 | relative viability (HCC-366; first compound 1.265 µM): 0.403 | relative viability (HCC-78; first compound 0.1265 µM): 0.451 | relative viability (HCC-78; first compound 0.4 µM): 0.441 | relative viability (HCC-78; first compound 1.265 µM): 0.448 | relative viability (LC-2-ad; first compound 0.04 µM): 0.692 | relative viability (LC-2-ad; first compound 0.1265 µM): 0.696 | relative viability (LC-2-ad; first compound 0.4 µM): 0.668 | relative viability (LC-2-ad; first compound 1.265 µM): 0.454 | relative viability (LOU-NH91; first compound 0.04 µM): 0.987 | relative viability (LOU-NH91; first compound 0.1265 µM): 0.992 | relative viability (LOU-NH91; first compound 0.4 µM): 0.942 | relative viability (LOU-NH91; first compound 1.265 µM): 0.86 | relative viability (LU99A; first compound 0.04 µM): 0.583 | relative viability (LU99A; first compound 0.1265 µM): 0.46 | relative viability (LU99A; first compound 0.4 µM): 0.469 | relative viability (LU99A; first compound 1.265 µM): 0.421 | relative viability (NCI-H1395; first compound 0.04 µM): 0.7 | relative viability (NCI-H1395; first compound 0.1265 µM): 0.67 | relative viability (NCI-H1395; first compound 0.4 µM): 0.672 | relative viability (NCI-H1395; first compound 1.265 µM): 0.683 | relative viability (NCI-H1651; first compound 0.04 µM): 0.349 | relative viability (NCI-H1651; first compound 0.1265 µM): 0.596 | relative viability (NCI-H1651; first compound 0.4 µM): 0.62 | relative viability (NCI-H1651; first compound 1.265 µM): 0.462 | relative viability (NCI-H1734; first compound 0.04 µM): 0.866 | relative viability (NCI-H1734; first compound 0.1265 µM): 0.858 | relative viability (NCI-H1734; first compound 0.4 µM): 0.876 | relative viability (NCI-H1734; first compound 1.265 µM): 0.648 | relative viability (NCI-H1755; first compound 0.04 µM): 0.762 | relative viability (NCI-H1755; first compound 0.1265 µM): 0.806 | relative viability (NCI-H1755; first compound 0.4 µM): 0.797 | relative viability (NCI-H1755; first compound 1.265 µM): 0.745 | relative viability (NCI-H1793; first compound 0.04 µM): 0.835 | relative viability (NCI-H1793; first compound 0.1265 µM): 1.16 | relative viability (NCI-H1793; first compound 0.4 µM): 0.84 | relative viability (NCI-H1793; first compound 1.265 µM): 0.744 | relative viability (NCI-H1944; first compound 0.04 µM): 0.53 | relative viability (NCI-H1944; first compound 0.1265 µM): 0.573 | relative viability (NCI-H1944; first compound 0.4 µM): 0.582 | relative viability (NCI-H1944; first compound 1.265 µM): 0.465 | relative viability (NCI-H2087; first compound 0.04 µM): 0.916 | relative viability (NCI-H2087; first compound 0.1265 µM): 0.924 | relative viability (NCI-H2087; first compound 0.4 µM): 0.611 | relative viability (NCI-H2087; first compound 1.265 µM): 0.465 | relative viability (NCI-H2170; first compound 0.04 µM): 0.82 | relative viability (NCI-H2170; first compound 0.1265 µM): 0.863 | relative viability (NCI-H2170; first compound 0.4 µM): 0.893 | relative viability (NCI-H2170; first compound 1.265 µM): 0.734 | relative viability (NCI-H2228; first compound 0.04 µM): 0.831 | relative viability (NCI-H2228; first compound 0.1265 µM): 0.652 | relative viability (NCI-H2228; first compound 0.4 µM): 0.745 | relative viability (NCI-H2228; first compound 1.265 µM): 0.291 | relative viability (NCI-H2405; first compound 0.04 µM): 1.02 | relative viability (NCI-H2405; first compound 0.1265 µM): 1.12 | relative viability (NCI-H2405; first compound 0.4 µM): 0.944 | relative viability (NCI-H2405; first compound 1.265 µM): 0.668 | relative viability (NCI-H3122; first compound 0.04 µM): 1.1 | relative viability (NCI-H3122; first compound 0.1265 µM): 1.07 | relative viability (NCI-H3122; first compound 0.4 µM): 1.12 | relative viability (NCI-H3122; first compound 1.265 µM): 0.855 | relative viability (NCI-H460; first compound 0.04 µM): 0.642 | relative viability (NCI-H460; first compound 0.1265 µM): 0.842 | relative viability (NCI-H460; first compound 0.4 µM): 0.831 | relative viability (NCI-H460; first compound 1.265 µM): 0.603 | relative viability (PC-3 [JPC-3]; first compound 0.04 µM): 0.803 | relative viability (PC-3 [JPC-3]; first compound 0.1265 µM): 0.836 | relative viability (PC-3 [JPC-3]; first compound 0.4 µM): 0.787 | relative viability (PC-3 [JPC-3]; first compound 1.265 µM): 0.667 | relative viability (RERF-LC-KJ; first compound 0.04 µM): 0.714 | relative viability (RERF-LC-KJ; first compound 0.1265 µM): 0.74 | relative viability (RERF-LC-KJ; first compound 0.4 µM): 0.724 | relative viability (RERF-LC-KJ; first compound 1.265 µM): 0.574 | relative viability (UMC-11; first compound 0.04 µM): 0.419 | relative viability (UMC-11; first compound 0.1265 µM): 0.321 | relative viability (UMC-11; first compound 0.4 µM): 0.347 | relative viability (UMC-11; first compound 1.265 µM): 0.219
